From US8048889B2, “3,4-disubstituted coumarin and quinolone compounds” (XTL Biopharmaceuticals Ltd., priority 2005, dated 2011)

Tests used:
[1] = test system: HCV Replicon (HCV IRES driven luciferase reporter in Huh-Luc-Neo cells); test: HCV Replicon Luciferase Assay; format: cell-based; settings: Hepatitis C virus, 48 h, no unit in table, hit threshold in μM
Description: (§1) The identification of inhibitors of HCV replication and/or proliferation has been facilitated by the development of a cell based system to study HCV replication and assay for HCV inhibitors. Inhibition of HCV replication may be performed using the HCV Replicon Assay developed in the laboratories of Bartenschlager (Lohman et al, Science 285, 110-113, 1999) and Rice (Blight et al, Science 290, 1972-1974, 2000). The assay is performed using the Huh-Luc-Neo cell line (Lohman et al, Science 285, 110-113, 1999). Huh-Luc-Neo cells are a human hepatoma cell line (Huh-7) stably expressing a bi-cistronic subgenomic replicon containing the HCV IRES in which the structural proteins of HCV had been deleted and replaced by a construct containing sequences coding for the firefly luciferase reporter gene, the neomycin selectable marker and the EMCV IRES to direct expression of a truncated HCV genome expressing the […] NS3, NS4A, NS4B, NS5A, and NS5B. HCV targets through which inhibitors could act to inhibit replication include the NS3 protease, the helicase/ATPase, NS5A, the NS5B- RNA dependent RNA polymerase, and the HCV IRES.
(§2) Expression of HCV IRES driven luciferase reporter activity and HCV RNA is measured to obtain indirect and direct measures of replication of HCV RNA respectively. Inhibitors of HCV replication and/or proliferation are determined by initially identifying molecules that inhibit expression of the HCV IRES driven luciferase reporter in this HCV Replicon Luciferase Assay. Cell viability assays and control cell based luciferase assays are then run on hits identified in the HCV Replicon Luciferase Assay to eliminate cytoxic compounds and non-specific compounds which act by inhibiting the luciferase enzyme.
Day 0 Cell Seeding and Compound Treatment: Huh-Luc-Neo Cells are seeded at 25,000/well in an opaque-walled 96 plate with Growth Medium (DMEM phenol red free+PS+2 mM glutamine; 100 μl/well). The compounds to be tested are added to the experimental wells (10 μl/well at 10× assay concentration) and the cells are then incubated (5% CO2, 37° C.) for 48 h.
(§3) Day 2 Reagent Preparation and Luciferase Assay: The Bright-Glo Luciferase Assay Buffer (Promega) is thawed and equilibrated to room temperature prior to use. The lyophilized Bright-Glo Luciferase Assay Substrate is equilibrated to room temperature prior to use. 10 ml of Bright-Glo Luciferase Assay Buffer is transferred to 1 vial of Bright-Glo Luciferase Assay Substrate bottle and mixed by gently with a Vortex. 100 ul of Bright-Glo Luciferase Assay reagent (Bright-Glo Luciferase Assay Buffer+Bright-Glo Luciferase Assay Substrate Mixture) is added to each well. The well contents are mixed for 5 min. on an orbital shaker at room temperature to induce cell lysis and the luminescence is then measured using a luminometer. The data is analyzed and IC50s are determined using GraphPad Prism 4 software. Hits validated in the Replicon Luciferase assay have IC50s<8.0 μM and show<30% inhibition of Cell Viability at a compound concentration of 100 μM (Cell Titer Glow Assay, cell viability assay conditions identical to HCV Replicon Luciferase Assay conditions).

[2] = test system: HCV Replicon (HCV RNA in Huh-Luc-Neo cells); test: HCV Replicon RNA Assay (Taqman); format: cell-based, Hepatitis C virus; settings: compound added day 0 and day 1, no unit in table, hit threshold in μM; for IC50: Hepatitis C virus
Description: as §1, §2
Day 0, Cell Seeding and Compound Treatment: Huh-Luc-Neo Cells are seeded at 25,000/well in an opaque-walled 96 plate with Growth Medium (DMEM phenol red free+PS+2 mM glutamine; 100 μl/well). The compounds to be tested are added to the experimental wells (10 μl/well at 10× assay concentration) and the cells are then incubated (5% CO2, 37° C.).
Day 1, Media Change and Compound Treatment: 24 hours after the initial compound treatment the cell culture media is aspirated from the wells and fresh Growth Medium is added (DMEM phenol red free+PS+2 mM glutamine; 100 μl/well). The compounds to be tested are then added to the appropriate experimental wells (10 μl/well at 10 × assay concentration) and the cells are then incubated (5% CO2, 37° C.) for an additional 24 hrs.
Day 2, RNA Isolation and cDNA Synthesis: The cells are washed with 1× Phosphate Buffered Saline (PBS) once.
(§4) Day 3, Quantitative PCR Based Measurement of HCV RNA (Taqman Assay): Quantitative PCR analysis to measure HCV RNA expression from cDNA synthesized on Day 2 is performed using the ABI 9700 HT Sequence Detection System (Applied Biosystems) as previously described (Lohman et al, Science 285, 110-113, 1999). The data is analyzed and IC50s are determined using GraphPad Prism 4 software. Hits validated in the Replicon RNA Assay have IC50s<8.0 μM and show <30% inhibition of Cell Viability at a compound concentration of 50 μM (Cell Titer Glow Assay, cell viability assay conditions identical to HCV Replicon RNA Assay conditions).

Huh-Luc-Neo cells = test: CellTiter-Glo Cell Viability Assay; format: cell-based, human; settings: for Toxicity % Inhibition at 50 uM (2 doses): inhibition of cell viability at 50 uM, conditions as in Replicon RNA Assay; for Toxicity % Inhibition at 100 um (1 dose): inhibition of cell viability at 100 um, conditions as in Replicon Luciferase Assay (48 h)
Description: as §3, §4
Day 0, Cell Seeding and Compound Treatment: Huh-Luc-Neo Cells are seeded at 25,000/well in an opaque-walled 96 plate with Growth Medium (DMEM phenol red free+PS+2 mM glutamine; 100 ul/well). The compounds to be tested for inhibition of cell viability are added to the experimental wells (10 μl/well at 10× assay concentration) and the cells are then incubated (5% CO2, 37° C.) for 48 h.
Day 2, Reagent Preparation and Assay: The CellTiter-Glo Buffer is thawed and equilibrated to room temperature prior to use. The lyophilized CellTiter-Glo Substrate is equilibrated to room temperature prior to use. 10 ml of CeliTiter-Glo Buffer is transferred to 1 vial of CellTiter-Glo Substrate and mixed by gently with a Vortex. 100 μl of CellTiter-Glo Assay reagent (CellTiter-Glo Buffer+CellTiter-Glo Substrate Mixture) is added to each well. The well contents are mixed for 5 min. on an orbital shaker at room temperature to induce cell lysis and the luminescence is then measured using a luminometer.

SMILES | IC50 [1] | TaqMan IC50 [2] | Toxicity % Inhibition at 50 uM (2 doses) (Huh-Luc-Neo cells) | Toxicity % Inhibition at 100 um (1 dose) (Huh-Luc-Neo cells) | IC50 [2]
O=c1[nH]c2ccccc2c(OCc2ccc(F)cc2)c1Cc1ccc(F)cc1 [VQ_35018] | 1 µM | Inactive | 12.3% | 10.0% | 
COc1ccc(/N=C/c2c(Nc3ccc(OC)cc3)c3ccccc3oc2=O)cc1 [VQ_36473] | 0.02 µM |  | 10.7% | 4.3% | 1.71 µM
Cc1cccc(COc2c(Cc3cccc(C)c3)c(=O)[nH]c3ccccc23)c1 [VQ_35027] | 2.1 µM | Inactive | 12.5% | 4.6% | 
COc1ccc2c(OCc3ccc(F)cc3F)c(Cc3ccc(F)cc3F)c(=O)oc2c1 [VQ_31744] | 4.5 µM |  | 7.0% | 10.9% | 0.28 µM
Cc1ccc(COc2c(Cc3ccc(C)cc3)c(=O)n(C)c3ccccc23)cc1 [VQ_32833] | 2.89 µM |  | 20.7% | 34.6% | 0.58 µM
Cn1c(=O)c(Cc2ccc(Cl)c(Cl)c2)c(OCc2ccc(Cl)c(Cl)c2)c2ccccc21 [VQ_34453] | 8.5 µM |  | 12.2% | 24.6% | 1.97 µM
COc1ccc2c(OCc3ccc(C)cc3)c(Cc3ccc(C)cc3)c(=O)oc2c1 [VQ_31763] | 8.29 µM |  | 6.5% | 4.6% | 0.43 µM
